Test results reported in patent US11107993B2, “Organic compound and organic electroluminescent element comprising same” (MATERIAL SCIENCE CO., LTD., priority 2015, dated 2021).

Test: Evaluation of solubility of organic compound in hexane, toluene and dichloromethane
Assay type: physicochemical
Conditions: room temperature; for solubility compared with Compound 9: summary of Table 3, toluene, dichloromethane
Method: Evaluation of Solubility of Organic Compound
The solubility in hexane, toluene and dichloromethane was measured for the compounds of Synthesis Example 9, and Comparative Synthesis Examples 2 and 3.

Cc1ccc(C)c(N(c2cc(C(C)(C)C)ccc2C)c2ccc3ccc4c(N(c5cc(C)ccc5C)c5cc(C(C)(C)C)ccc5C)ccc5ccc2c3c54)c1 [Compound 1-B]
solubility in hexane: Insoluble | solubility compared with Compound 9: significantly lower solubility than Compound 9

CCc1cc(N(c2cc(C)ccc2C)c2cc(C(C)(C)C)ccc2C)c2ccc3c(CC)cc(N(c4cc(C)ccc4C)c4cc(C(C)(C)C)ccc4C)c4ccc1c2c34 [Compound 1-C]
solubility in hexane: Insoluble | solubility compared with Compound 9: significantly lower solubility than Compound 9
